Data: US11555072B2, “A33 antibody compositions and methods of using the same in radioimmunotherapy” (MEMORIAL SLOAN KETTERING CANCER CENTER, priority 2017, dated 2023)

What was measured:
GPA33 = biological target: T1, GPA33 (Homo sapiens, UniProt Q99795); test: FACS staining of tumor cell lines; format: cell-based; details: panel of GPA33(+) and GPA33(−) cell lines
T1 construct: endogenous in cells; host or cells: human colon cancer cell lines (e.g. LS174T, SW1222, Colo205) and gastric cancer cell line SNU16
T1 sequence (Q99795 22-319): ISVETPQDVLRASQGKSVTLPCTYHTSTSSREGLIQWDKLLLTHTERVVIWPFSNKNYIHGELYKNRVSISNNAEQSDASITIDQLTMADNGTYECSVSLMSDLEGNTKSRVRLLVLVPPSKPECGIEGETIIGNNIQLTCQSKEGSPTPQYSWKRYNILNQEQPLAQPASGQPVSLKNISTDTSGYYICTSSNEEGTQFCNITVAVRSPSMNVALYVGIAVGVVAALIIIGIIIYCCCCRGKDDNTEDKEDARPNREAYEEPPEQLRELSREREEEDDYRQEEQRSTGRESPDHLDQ
Text: Antibodies and flow cytometry. Antibodies anti-hCD25-PE, anti-CD69-PE, anti-hCD8-APC, anti-hCD45-PECy7, anti-hCD4-PE, anti-hCD4-BV421, anti-hCD62L-PercpCy5.5, anti-hPD1-BV421, anti-hCD45RO-PECy7, were purchased from BIOLEGEND® (San Diego, Calif.). Goat anti-human IgG-PE was purchased from SouthernBiotech (Birmingham, Ala.). Streptavidin-PE, anti-hCD4-APC and anti-hCD25-APC were purchased from BD Biosciences (San Jose, Calif.). All FACS analysis was done using FACSCalibur or LSRII system (BD Biosciences, San Jose, Calif.) and analyzed using FlowJo (FLOWJO, Ashland, Oreg.).
The avidities of huA33-BsAb towards GPA33 at both 25° C. and 37° C. were measured using GPA33 immobilized CM5 chips.

Colo205 cells = test: TDCC assay with sorted fresh T cell subsets; format: cell-based, human
Description: T-cell dependent cytotoxicity (TDCC) assays. Cytotoxicity assays were performed using both ^51Cr-release assay and Pierce LDH-release assay (Thermo Fisher Scientific, Cambridge, Mass.). For both assays, T cells activated by exposure to anti-CD3/anti-CD28 Dynabeads for 14 days were subsequently used as effector cells, excepted for sorted cells from PBMCs, which were used for TDCC assay without prior stimulation. ^51Cr assay was performed as previously described in Cheng M et al., International Journal of Cancer 136:476-486 (2015). LDH assay was conducted according to the manufacturer's instructions with the following modifications. Briefly, for each assay well of a 96-well round-bottom plate, 1.5×10^4 target cells were incubated with variable number of effector cells, depending on the intended E:T ratios. […] Each condition was done in triplicates. Supernatant was then transferred to a flat bottom plate with reaction substrate and incubated for 30 min before reading at 490 nm, with 680 nm as a reference wavelength. EC50 values were calculated by fitting the curves to a 4-parameter nonlinear regression model using GraphPad Prism.
To determine which subsets of T cells were mobilized by huA33-BsAb, CD45RA(+)CD62L(+) and CD45RA(−)CD45RO(+)CD62L(−) memory subsets from both CD4(+) and CD8(+) T cells were sorted. […]

LS174T tumors = test: s.c. LS174T xenograft with s.c. PBMCs; format: in vivo, mice; details: 6 doses over 3 weeks
Description: (§1) In vivo tumor therapy. For subcutaneous (s.c.) tumor models, LS174T, Colo205 or SNU16 cells were combined with fresh PBMCs at a 1:1 ratio, mixed with […]® (volume of cell:gel=1:2), and implanted (100 μl/mouse) at the flank of Balb/c Rag2^−/−IL2Rγ^−/− (DKO) mice (now commercially available from Taconic as CIEA BRG mice). Treatment started after confirmation of tumor presence with a BIW schedule at 100 μg/mouse and continued for 3-4 weeks. Tumor growth was monitored by weekly measurement of tumor volume using a caliper or a digital device Peira TM900 Scanner (Peira Scientific Instruments, Turnhout, Belgium).
HuA33-BsAb cured MSI tumor LSI74T in a s.c. xenograft model and suppressed tumor growth in an i.p. model. LS174T cells were mixed with PBMCs at a 1:1 ratio and implanted subcutaneously in DKO mice. […] Mice from tumor+PBMC group developed tumor ulceration and had to be euthanized.

Colo205 tumors = test: s.c. Colo205 xenograft with PBMCs; format: in vivo, mice
Description: as §1
HuA33-BsAb cured MSS tumor COLO205 in a s.c. xenograft model and suppressed tumor growth of metastatic MSS tumor SW1222. Two MSS colon cancer cell lines Colo205 and SW1222 were tested. For Colo205 cells, tumors were implanted subcutaneously with PBMCs as effector cells.

SW1222 tumor = test: i.p. SW1222 tumor model with i.v. T cells; format: in vivo, mice; details: 6 doses i.v. over 3 weeks, T cells weekly over 2 weeks
Description: For intraperitoneal (i.p.) tumor models, luciferase expressing LS174T-luc or SW1222-luc cells were resuspended in RPMI medium and injected intraperitoneally into DKO mice. Human effector cells were supplied as activated T cells and injected intravenously. Mice were treated with 2-3 weekly cycles of antibody-T cell-antibody regimen, with each component separated by 3-4 days. Growth of tumors was followed weekly by measuring luminescence signals on an IVIS Spectrum in vivo imaging system ([…]® Inc., Waltham, Mass.) after injection of 3.3 mg/mouse of luciferin. Luminescence was analyzed and quantified using Living Image Software ([…]®-Inc., Waltham, Mass.).
For the SW1222 cell line, tumors were planted intraperitoneally and treated with 6 doses of i.v. antibody over 3 weeks, and i.v. T cell weekly over 2 weeks. […] It is anticipated that additional treatment cycles will completely eradicate the growth of tumors, as in subcutaneous models.

## huA33-BsAb: huA33 IgG with humanized OKT3 scFv fused to light chain C-terminus, N297A and K322A; SEQ ID NO: 19 and 21
GPA33
  FACS staining of cancer cell lines: stained colon cancer cell lines and one gastric cancer cell line but not GPA33(−) neuroblastoma cell line IMR32, osteosarcoma cell line TC32 or melanoma cell line SKMEL5
Colo205 cells; CD45RO+ and CD45RO− fractions, 48 hours
  CD25 expression on T cells from the TDCC assay: CD25 expression was upregulated
Colo205 cells; Colo205, E:T 5:1, 48 hours, LDH assay
  cytotoxicity by sorted T cell subsets: both CD4(+) and CD8(+) memory T cell subsets were capable of inducing cytotoxicity
LS174T tumors
  time mice remained tumor free: at least 120 days
  tumor response: effectively cured the mice
Colo205 tumors; 4 doses
  tumor response: completely eradicate Colo205 tumors
Colo205 tumors; after a total of 6 doses
  time mice remained tumor free: at least 4 months
SW1222 tumor
  tumor growth and survival: suppressed tumor growth and significantly prolonged mice survival
